Read-outs that look alike come from different tables or passages of the source. *1 amine or outer side, *2 acyl side, *3 side chain or, on linkers, in order; H or OH if unused. Where a SMILES comes first, the peptide text is derived from it. Bridges are numbered along the chain shown (N, C = ends). [ ]: non-standard residue; d: D form. The star is where a group is joined. hPhe(3-Cl-4-CF3) = N[C@@H](CCc1ccc(C(F)(F)F)c(Cl)c1)C(=O)O; NPrPhe(4-CF3) = CCCN[C@@H](Cc1ccc(C(F)(F)F)cc1)C(=O)O; X40 = Cc1ccc(C[C@@H](C(=O)[*:2])N(CC(C)C)[*:1])cc1; X49 = Cc1ccc(C[C@@H](C(=O)[*:2])N(CC2CC2)[*:1])cc1; X1 = CCCCN([C@@H](Cc1ccc(C)cc1)C(=O)[*:2])[*:1]; NPrPhe(4-Me) = CCCN[C@@H](Cc1ccc(C)cc1)C(=O)O; X21 = CCCN([C@H](C(=O)[*:2])C1CCCC1)[*:1]; NMeGly(cPent) = CN[C@H](C(=O)O)C1CCCC1; NMeD = CN[C@@H](CC(=O)O)C(=O)O; NMeL = CN[C@@H](CC(C)C)C(=O)O; Morpholide = C1CN(*)CCO1; NMeA = CN[C@@H](C)C(=O)O; Ac5c = NC1(C(=O)O)CCCC1; Aze = O=C(O)[C@@H]1CCN1; NEtG = CCNCC(=O)O; Sar = CNCC(=O)O
What was measured:
[1] = target: GDP-bound NRAS wild-type protein (Homo sapiens, UniProt P01111); experiment: Binding to NRAS by surface plasmon resonance (SPR), KD and KD ratio to KRAS; conditions: ratio of KD for GDP-bound NRAS wild-type protein to KD for KRAS
Chain of GDP-bound NRAS wild-type protein (P01111 whole entry): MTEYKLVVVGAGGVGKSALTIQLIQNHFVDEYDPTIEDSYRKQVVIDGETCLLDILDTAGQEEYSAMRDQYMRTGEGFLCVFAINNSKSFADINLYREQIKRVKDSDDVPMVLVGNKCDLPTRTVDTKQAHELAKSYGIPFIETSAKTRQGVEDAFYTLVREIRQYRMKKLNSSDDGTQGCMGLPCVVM
Method in brief: (§1)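 GDP-bound biotin-Avi RAS captured at ~100–300 RU, 30°C, pH 7.4 HBS containing 10 µM GDP, 10 mM MgCl2, 1 mM DTT, 0.01% Tween 20 and 4% DMSO. KD by 1:1 fitting.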

HRAS wild-type protein = HRAS wild-type protein (Homo sapiens, UniProt P01112); experiment: Binding to HRAS by surface plasmon resonance (SPR), KD and KD ratio to KRAS; conditions: ratio of KD for HRAS wild-type protein to KD for KRAS
Chain of HRAS wild-type protein (P01112 whole entry): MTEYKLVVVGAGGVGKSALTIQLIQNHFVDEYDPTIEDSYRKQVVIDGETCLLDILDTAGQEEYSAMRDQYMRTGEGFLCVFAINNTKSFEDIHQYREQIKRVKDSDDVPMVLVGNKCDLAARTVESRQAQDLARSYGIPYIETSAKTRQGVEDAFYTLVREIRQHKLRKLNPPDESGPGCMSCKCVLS
Method in brief: as §1

[2] = system: human lung cancer strain NCI-H441; type: cell-based
Method in brief: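 Readout: […] after the ATP-based reagent. Compound: serial dilutions in dimethyl sulfoxide.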

Row | Compound | NRAS /KRAS [1] | HRAS /KRAS (HRAS wild-type protein) | IC50 [2] | IC50 ([2]; NCI-H441 cells, 4 days, CellTiter-Glo, read-out: NCl-H441 IC50)
1 | CCCN1C(=O)[C@@H]2CCN2C(=O)[C@H](C)N(C)C(=O)[C@H]([C@@H](C)CC)NC(=O)[C@H](CC(C)C)N(C)C(=O)C[C@@H](C(=O)N2CCOCC2)N(C)C(=O)[C@H](C2CCCC2)N(C)C(=O)C2(CCCC2)NC(=O)[C@@H]2CCCN2C(=O)[C@H](CCc2ccc(C(F)(F)F)c(Cl)c2)NC(=O)CN(C)C(=O)[C@@H]1Cc1ccc(C)cc1 [PP0052] ([NMeL]I[NMeA][Aze][NPrPhe(4-Me)][Sar][hPhe(3-Cl-4-CF3)]P[Ac5c][NMeGly(cPent)][NMeD]-Morpholide; lactam N-11) | C (A compound having a KD ratio of 0.1 or more and less than 3 is denoted as C) | B (a compound having 3 or more and less than 10 is denoted as B) | 1.7 nM | –
2 | CCCN1C(=O)[C@@H]2CCN2C(=O)[C@H](C)N(C)C(=O)[C@H]([C@@H](C)CC)NC(=O)[C@H](CC(C)C)N(C)C(=O)C[C@@H](C(=O)N2CCOCC2)N(C)C(=O)[C@H](C2CCCC2)N(C)C(=O)C2(CCCC2)NC(=O)[C@@H]2CCCN2C(=O)[C@H](CCc2ccc(C(F)(F)F)c(Cl)c2)NC(=O)CN(C)C(=O)[C@@H]1Cc1ccc(C(F)(F)F)cc1 [PP0053] ([NMeL]I[NMeA][Aze][NPrPhe(4-CF3)][Sar][hPhe(3-Cl-4-CF3)]P[Ac5c][NMeGly(cPent)][NMeD]-Morpholide; lactam N-11) | C (A compound having a KD ratio of 0.1 or more and less than 3 is denoted as C) | C (A compound having a KD ratio of 0.1 or more and less than 3 is denoted as C) | 4.6 nM | –
3 | CCCN1C(=O)[C@@H]2CCN2C(=O)[C@H](C)N(C)C(=O)[C@H]([C@@H](C)CC)NC(=O)[C@H](CC(C)C)N(C)C(=O)C[C@@H](C(=O)N2CCOCC2)N(C)C(=O)[C@H](C2CCCC2)N(C)C(=O)C2(CCCC2)NC(=O)[C@@H]2CCCN2C(=O)[C@H](CCc2ccc(C(F)(F)F)c(Cl)c2)NC(=O)CN(C)C(=O)[C@@H]1C1CCCC1 [PP0054] ([NMeL]I[NMeA][Aze][X21][Sar][hPhe(3-Cl-4-CF3)]P[Ac5c][NMeGly(cPent)][NMeD]-Morpholide; lactam N-11) | C (A compound having a KD ratio of 0.1 or more and less than 3 is denoted as C) | C (A compound having a KD ratio of 0.1 or more and less than 3 is denoted as C) | – | 82 nM
4 | CC[C@H](C)[C@@H]1NC(=O)[C@H](CC(C)C)N(C)C(=O)C[C@@H](C(=O)N2CCOCC2)N(C)C(=O)[C@H](C2CCCC2)N(C)C(=O)C2(CCCC2)NC(=O)[C@@H]2CCCN2C(=O)[C@H](CCc2ccc(C(F)(F)F)c(Cl)c2)NC(=O)CN(C)C(=O)[C@H](Cc2ccc(C)cc2)N(CC(C)C)C(=O)[C@@H]2CCN2C(=O)[C@H](C)N(C)C1=O [PP0056] ([NMeL]I[NMeA][Aze][X40][Sar][hPhe(3-Cl-4-CF3)]P[Ac5c][NMeGly(cPent)][NMeD]-Morpholide; lactam N-11) | C (A compound having a KD ratio of 0.1 or more and less than 3 is denoted as C) | B (a compound having 3 or more and less than 10 is denoted as B) | 49.6 nM | –
5 | CC[C@H](C)[C@@H]1NC(=O)[C@H](CC(C)C)N(C)C(=O)C[C@@H](C(=O)N2CCOCC2)N(C)C(=O)[C@H](C2CCCC2)N(C)C(=O)C2(CCCC2)NC(=O)[C@@H]2CCCN2C(=O)[C@H](CCc2ccc(C(F)(F)F)c(Cl)c2)NC(=O)CN(C)C(=O)[C@H](Cc2ccc(C)cc2)N(CC2CC2)C(=O)[C@@H]2CCN2C(=O)[C@H](C)N(C)C1=O [PP0057] ([NMeL]I[NMeA][Aze][X49][Sar][hPhe(3-Cl-4-CF3)]P[Ac5c][NMeGly(cPent)][NMeD]-Morpholide; lactam N-11) | C (A compound having a KD ratio of 0.1 or more and less than 3 is denoted as C) | B (a compound having 3 or more and less than 10 is denoted as B) | 6.2 nM | –
6 | CCCN1C(=O)[C@@H]2CCN2C(=O)[C@H](C)N(C)C(=O)[C@H]([C@@H](C)CC)NC(=O)[C@H](CC(C)C)N(C)C(=O)C[C@@H](C(=O)N2CCOCC2)N(C)C(=O)[C@H](C2CCCC2)N(C)C(=O)C2(CCCC2)NC(=O)[C@@H]2CCCN2C(=O)[C@H](CCc2ccc(C(F)(F)F)c(Cl)c2)NC(=O)CN(CC)C(=O)[C@@H]1Cc1ccc(C)cc1 [PP0058] ([NMeL]I[NMeA][Aze][NPrPhe(4-Me)][NEtG][hPhe(3-Cl-4-CF3)]P[Ac5c][NMeGly(cPent)][NMeD]-Morpholide; lactam N-11) | C (A compound having a KD ratio of 0.1 or more and less than 3 is denoted as C) | C (A compound having a KD ratio of 0.1 or more and less than 3 is denoted as C) | 25.8 nM | –
7 | CCCN1C(=O)CN(C)C(=O)CN(C)C(=O)[C@H]([C@@H](C)CC)NC(=O)[C@H](CC(C)C)N(C)C(=O)C[C@@H](C(=O)N2CCOCC2)N(C)C(=O)[C@H](C2CCCC2)N(C)C(=O)C2(CCCC2)NC(=O)[C@@H]2CCCN2C(=O)[C@H](CCc2ccc(C(F)(F)F)c(Cl)c2)NC(=O)CN(C)C(=O)[C@@H]1Cc1ccc(C)cc1 [PP0059] ([NMeL]I[Sar][Sar][NPrPhe(4-Me)][Sar][hPhe(3-Cl-4-CF3)]P[Ac5c][NMeGly(cPent)][NMeD]-Morpholide; lactam N-11) | B (a compound having 3 or more and less than 10 is denoted as B) | C (A compound having a KD ratio of 0.1 or more and less than 3 is denoted as C) | 6.1 nM | –
8 | CCCN1C(=O)CN(C)C(=O)CN(C)C(=O)[C@H]([C@@H](C)CC)NC(=O)[C@H](CC(C)C)N(C)C(=O)C[C@@H](C(=O)N2CCOCC2)N(C)C(=O)[C@H](C2CCCC2)N(C)C(=O)C2(CCCC2)NC(=O)[C@@H]2CCCN2C(=O)[C@H](CCc2ccc(C(F)(F)F)c(Cl)c2)NC(=O)CN(C)C(=O)[C@@H]1Cc1ccc(C(F)(F)F)cc1 [PP0060] ([NMeL]I[Sar][Sar][NPrPhe(4-CF3)][Sar][hPhe(3-Cl-4-CF3)]P[Ac5c][NMeGly(cPent)][NMeD]-Morpholide; lactam N-11) | B (a compound having 3 or more and less than 10 is denoted as B) | B (a compound having 3 or more and less than 10 is denoted as B) | 1.5 nM | –
9 | CCCN1C(=O)CN(C)C(=O)CN(C)C(=O)[C@H]([C@@H](C)CC)NC(=O)[C@H](CC(C)C)N(C)C(=O)C[C@@H](C(=O)N2CCOCC2)N(C)C(=O)[C@H](C2CCCC2)N(C)C(=O)C2(CCCC2)NC(=O)[C@@H]2CCCN2C(=O)[C@H](CCc2ccc(C(F)(F)F)c(Cl)c2)NC(=O)CN(C)C(=O)[C@@H]1C1CCCC1 [PP0061] ([NMeL]I[Sar][Sar][X21][Sar][hPhe(3-Cl-4-CF3)]P[Ac5c][NMeGly(cPent)][NMeD]-Morpholide; lactam N-11) | B (a compound having 3 or more and less than 10 is denoted as B) | C (A compound having a KD ratio of 0.1 or more and less than 3 is denoted as C) | 84.4 nM | –
10 | CCCCN1C(=O)CN(C)C(=O)CN(C)C(=O)[C@H]([C@@H](C)CC)NC(=O)[C@H](CC(C)C)N(C)C(=O)C[C@@H](C(=O)N2CCOCC2)N(C)C(=O)[C@H](C2CCCC2)N(C)C(=O)C2(CCCC2)NC(=O)[C@@H]2CCCN2C(=O)[C@H](CCc2ccc(C(F)(F)F)c(Cl)c2)NC(=O)CN(C)C(=O)[C@@H]1Cc1ccc(C)cc1 [PP0062] ([NMeL]I[Sar][Sar][X1][Sar][hPhe(3-Cl-4-CF3)]P[Ac5c][NMeGly(cPent)][NMeD]-Morpholide; lactam N-11) | C (A compound having a KD ratio of 0.1 or more and less than 3 is denoted as C) | C (A compound having a KD ratio of 0.1 or more and less than 3 is denoted as C) | 3.8 nM | –
11 | CC[C@H](C)[C@@H]1NC(=O)[C@H](CC(C)C)N(C)C(=O)C[C@@H](C(=O)N2CCOCC2)N(C)C(=O)[C@H](C2CCCC2)N(C)C(=O)C2(CCCC2)NC(=O)[C@@H]2CCCN2C(=O)[C@H](CCc2ccc(C(F)(F)F)c(Cl)c2)NC(=O)CN(C)C(=O)[C@H](Cc2ccc(C)cc2)N(CC(C)C)C(=O)CN(C)C(=O)CN(C)C1=O [PP0063] ([NMeL]I[Sar][Sar][X40][Sar][hPhe(3-Cl-4-CF3)]P[Ac5c][NMeGly(cPent)][NMeD]-Morpholide; lactam N-11) | C (A compound having a KD ratio of 0.1 or more and less than 3 is denoted as C) | C (A compound having a KD ratio of 0.1 or more and less than 3 is denoted as C) | 39.3 nM | –
12 | CC[C@H](C)[C@@H]1NC(=O)[C@H](CC(C)C)N(C)C(=O)C[C@@H](C(=O)N2CCOCC2)N(C)C(=O)[C@H](C2CCCC2)N(C)C(=O)C2(CCCC2)NC(=O)[C@@H]2CCCN2C(=O)[C@H](CCc2ccc(C(F)(F)F)c(Cl)c2)NC(=O)CN(C)C(=O)[C@H](Cc2ccc(C)cc2)N(CC2CC2)C(=O)CN(C)C(=O)CN(C)C1=O [PP0064] ([NMeL]I[Sar][Sar][X49][Sar][hPhe(3-Cl-4-CF3)]P[Ac5c][NMeGly(cPent)][NMeD]-Morpholide; lactam N-11) | C (A compound having a KD ratio of 0.1 or more and less than 3 is denoted as C) | C (A compound having a KD ratio of 0.1 or more and less than 3 is denoted as C) | 9.9 nM | –
13 | CCCN1C(=O)CN(CC)C(=O)CN(C)C(=O)[C@H]([C@@H](C)CC)NC(=O)[C@H](CC(C)C)N(C)C(=O)C[C@@H](C(=O)N2CCOCC2)N(C)C(=O)[C@H](C2CCCC2)N(C)C(=O)C2(CCCC2)NC(=O)[C@@H]2CCCN2C(=O)[C@H](CCc2ccc(C(F)(F)F)c(Cl)c2)NC(=O)CN(C)C(=O)[C@@H]1Cc1ccc(C)cc1 [PP0065] ([NMeL]I[Sar][NEtG][NPrPhe(4-Me)][Sar][hPhe(3-Cl-4-CF3)]P[Ac5c][NMeGly(cPent)][NMeD]-Morpholide; lactam N-11) | C (A compound having a KD ratio of 0.1 or more and less than 3 is denoted as C) | C (A compound having a KD ratio of 0.1 or more and less than 3 is denoted as C) | 4.3 nM | –

— patent EP4603105A1, “PHARMACEUTICAL COMPOSITION CONTAINING CYCLIC COMPOUND HAVING SELECTIVE KRAS INHIBITORY EFFECT AGAINST HRAS AND NRAS” (CHUGAI SEIYAKU KABUSHIKI KAISHA, priority 2022, dated 2024)
